The source of these data is patent publication US5770742A, “Thiophene-tryptamine derivatives” (Allelix Biopharmaceuticals Inc., priority 1996, dated 1998).

The target of one experiment is T1, 5-HT1Dβ (Homo sapiens, UniProt P28222).
T1 construct: expressed in transfected cells
Briefly: Binding affinity, inhibition of 3H-5-HT binding, 5-HT1Dβ. The settings on record: 1 h, 100 nm, 60 minute at 22° C., mean of triplicate determinations. The protocol:
(§1) Compounds of the previous examples, as well as reference compounds, were evaluated for binding affinity using cell types receptive specifically to 5-HT1Dα and 5-HT1Dβ ligands. The assay protocol generally entailed the incubation of membranes prepared from cells expressing the 1Dβ or 1Dα sub-type of 5-HT receptors, with ^3 H-5-HT. The test compound was incubated at 100 nm concentration with the radioligand and the membrane homogenates prepared from the recombinant cells. After a 60 minute incubation at 22° C., the incubation was terminated by vacuum filtration. The filters were washed with buffer and counted for radioactivity using liquid scintillation spectrometry. The affinity of the test compound for the 5-HT1Dβ or 5-HT1Dα receptor estimated by its inhibition of binding of the radioligand to the receptor. The result is expressed desciptively as percent inhibition of binding. Each value is the mean of triplicate determinations.

Another experiment deals with T2, 5-HT1D receptor (Oryctolagus cuniculus, UniProt P49144).
T2 construct: Ring segments of the vein (4-5 mm in length) were cut and the endothelium gently removed; from tissue; host or cells: rabbit saphenous vein rings, endothelium removed
Briefly: Agonist assay, contraction of rabbit isolated saphenous vein. Set-up: species or system rabbit (male New Zealand White). The protocol:
Tissues were obtained from male New Zealand White rabbits (c. 3-4 kg) which were sacrificed by an overdose of pentobarbitol. The saphenous veins from both the left and right side were cleaned of fat and connective tissue and placed in Krebs solution (118 mM NaCl, 11 mM glucose, 25 mM NaHCO3, 4,7 mM KCl, 2.5 mM CaCl2 2H2 O, 1.2 mM KH2 PO4 and 1.2 mM MgSO4 7H2 O). Ring segments of the vein (4-5 mm in length) were cut and the endothelium gently removed. The segments were mounted in 10 mL baths containing Krebs buffer and were constantly aerated with 95% oxygen/5% carbon dioxide and maintained at 37° C. and pH 7.4 in order to record the isometric tension. A resting tension of 2.5 g was applied and the tissues allowed to equilibrate for 90 minutes, with washing every 15-20 minutes. After the equilibrium period, the rings were depolarized by addition of two aliquots of KCl (80 mM final concentration)separated by a 20 minute washing period. The tissues were then exposed to prazosin, idazoxan and indomethacin (all 1 μM in final concentration) for 30 minutes in order to exclude the actions of α1 - and α2 -adrenergic receptors and prostaglandin receptors respectively. […] Responses were calculated as a percentage of the maximal contraction evoked by 80 mM KCl. Only one compound was tested per preparation.
EC50 represents the concentration of the compound which causes 50% of the maximum contraction effected by it.

Another experiment deals with T3, 5-HT1Dα (Homo sapiens, UniProt P28221).
T3 construct: expressed in transfected cells
The experiment is described as follows: Binding affinity, inhibition of 3H-5-HT binding, 5-HT1Dα. Conditions: 1 h, 100 nm, 60 minute at 22° C., mean of triplicate determinations. How it is done: as §1, with “determinations. For comparison, sumatriptan was also evaluated. The results are presented in Table 2 below, with reference to the compound numbers of Table 1 and the specific synthesis examples given above.” for “determinations.”

For a further experiment, the system named is 5-HT1 receptor. The settings on record: WO 93/21178, Example 67; cited from earlier work.
The subject of the next experiment is 5-HT1F. Conditions: prior art; cited from earlier work.
The test system of another experiment is other 5-HT receptors. Conditions: prior art; cited from earlier work.
The subject of another experiment is 5-HT1D. Conditions: prior art; cited from earlier work.
Where [1] appears, read: rabbit isolated saphenous vein, 50% of the maximum contraction effected by the compound, with prazosin, idazoxan, indomethacin 1 μM, read-out: EC50.

Like-named read-outs stand apart in the source and are kept apart here. Bounds are passed on as bounds.

T3 sequence (P28221 whole entry): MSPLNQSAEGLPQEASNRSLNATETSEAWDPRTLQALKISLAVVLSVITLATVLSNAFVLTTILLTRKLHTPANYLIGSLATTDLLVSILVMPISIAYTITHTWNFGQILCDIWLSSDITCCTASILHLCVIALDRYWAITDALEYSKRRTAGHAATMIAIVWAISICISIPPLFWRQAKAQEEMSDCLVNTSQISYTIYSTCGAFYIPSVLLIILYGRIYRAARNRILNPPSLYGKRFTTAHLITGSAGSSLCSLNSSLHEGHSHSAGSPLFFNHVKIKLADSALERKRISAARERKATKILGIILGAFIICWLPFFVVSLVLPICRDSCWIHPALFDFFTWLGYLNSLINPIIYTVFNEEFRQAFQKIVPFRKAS
T1 sequence (P28222 whole entry): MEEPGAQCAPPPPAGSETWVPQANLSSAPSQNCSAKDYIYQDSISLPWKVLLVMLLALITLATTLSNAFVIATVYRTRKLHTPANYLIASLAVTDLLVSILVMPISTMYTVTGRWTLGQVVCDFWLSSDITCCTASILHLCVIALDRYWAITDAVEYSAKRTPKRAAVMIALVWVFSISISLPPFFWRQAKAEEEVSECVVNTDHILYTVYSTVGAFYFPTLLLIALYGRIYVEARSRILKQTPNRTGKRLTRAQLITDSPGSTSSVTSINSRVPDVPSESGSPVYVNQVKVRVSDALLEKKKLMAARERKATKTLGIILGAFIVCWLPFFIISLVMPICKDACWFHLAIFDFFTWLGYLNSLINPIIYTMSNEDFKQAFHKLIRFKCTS
T2 sequence (P49144 whole entry): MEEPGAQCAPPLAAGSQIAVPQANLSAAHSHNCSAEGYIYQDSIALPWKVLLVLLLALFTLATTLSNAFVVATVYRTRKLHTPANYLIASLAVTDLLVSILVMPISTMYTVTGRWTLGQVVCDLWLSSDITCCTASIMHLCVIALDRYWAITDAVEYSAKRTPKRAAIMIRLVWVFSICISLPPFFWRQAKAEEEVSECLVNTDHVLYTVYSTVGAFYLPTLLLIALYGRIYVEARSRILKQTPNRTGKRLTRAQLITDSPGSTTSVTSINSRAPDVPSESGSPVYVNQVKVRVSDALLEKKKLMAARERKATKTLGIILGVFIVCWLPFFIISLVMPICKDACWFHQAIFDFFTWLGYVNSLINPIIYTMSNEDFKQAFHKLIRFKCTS

`CN1CCC[C@@H]1Cc1c[nH]c2ccc(-c3cccs3)cc12` [Compound 1, 3-(N-Methylpyrrolidin-2R-ylmethyl)-5-(2-thienyl)-1H-indole]: the values for the inhibition at 0.1 µM on 5-HT1Dβ and at 5-HT1Dα were 84% and 98%, respectively. The 50% effective concentration (EC50) – broadly, the concentration needed to bring the measured effect to its halfway point – at 5-HT1D receptor (setting [1]) turned out to be 121 nM.

`CN1CCC[C@@H]1Cc1c[nH]c2ccc(-c3ccc(C(N)=O)s3)cc12` [5-(5-carbamoyl-2-thienyl)-3-(1-methylpyrrolidin-2(R)-ylmethyl)-1H-indole]: in the experiment on 5-HT1 receptor, the 5-HT1 receptor activity entry is “some 5-HT1 receptor activity”.

Turning to `CN1CCC(c2c[nH]c3ccc(-c4cccs4)cc23)C1` (racemic) [Compound 8, 3-(N-Methylpyrrolidin-3-yl)-5-(2-thienyl)-1H-indole], the results for the inhibition at 0.1 µM at 5-HT1Dβ and on 5-HT1Dα were 68% and 95%, respectively. The EC50 on 5-HT1D receptor (setting [1]) is 1730 nM.

As for `CN(C)CC(O)c1c[nH]c2ccc(-c3ccsc3)cc12` (racemic) [Compound 10, (±)-3-(2-N,N-Dimethylamino-1-hydroxylethyl)-5-(3-thienyl)-1H-indole], the inhibition (usually the drop in the measured response relative to a control, in per cent) at 0.1 µM at 5-HT1Dβ turned out to be 42%; on 5-HT1Dα, 93%. The EC50 at 5-HT1D receptor (setting [1]) came out at 888 nM.

As to `CN1CCC[C@H]1Cc1c[nH]c2ccc(-c3cccs3)cc12` [Compound 6, 3-(N-Methylpyrrolidin-2S-ylmethyl)-5-(2-thienyl)-1H-indole], the inhibition at 0.1 µM at 5-HT1Dβ was 47%; on 5-HT1Dα, 96%. For the same compound, the EC50 at 5-HT1D receptor (setting [1]) turned out to be 873 nM.

With `CN(C)CCc1c[nH]c2ccc(-c3ccc(Cl)s3)cc12` [Compound 9, 5-(5-Chlorothien-2-yl)-3-(2-N,N-dimethylaminoethyl)-1H-indole], the inhibition at 0.1 µM was 83% at 5-HT1Dβ and 97% at 5-HT1Dα.

Consider `CN(C)CCc1c[nH]c2ccc(-c3ccc(CO)s3)cc12` [Compound 5, 3-(2-N,N-Dimethylaminoethyl)-5-(5-hydroxymethylthienyl-2-yl)-1H-indole], for which the figures for the inhibition at 0.1 µM at 5-HT1Dβ and at 5-HT1Dα were 77% and 96%, respectively.

As for `NCCc1c[nH]c2ccc(-c3cccs3)cc12` [Compound 7, 3-(2-Aminoethyl)-5-(2-thienyl)-1H-indole], the inhibition at 0.1 µM came out at 78% at 5-HT1Dβ and 98% at 5-HT1Dα. On 5-HT1D receptor (setting [1]), the 50% effective concentration (EC50) was 607 nM.

For the compound `Cc1ccc(-c2ccc3[nH]cc(CCN(C)C)c3c2)s1` [Compound 12, 3-(2-N,N-Dimethylaminoethyl)-5-(5-methylthien-2-yl)-1H-indole], the inhibition at 0.1 µM turned out to be 52% on 5-HT1Dβ and 87% at 5-HT1Dα.

Take `c1csc(-c2ccc3[nH]cc(CCN4CCCC4)c3c2)c1` [Compound 11, 3-(2-Pyrrolidinylethyl)-5-(2-thienyl)-1H-indole]: the inhibition at 0.1 µM was 14% at 5-HT1Dβ and 84% at 5-HT1Dα. At 5-HT1D receptor, this compound registered an EC50 of 2340 nM. The Emax at 5-HT1D receptor (rabbit isolated saphenous vein, maximum contraction vs KCl (80 mM), read-out: agonist type (maximum contraction relative to 80 mM KCl)) was below 60%.

For `CN(C)CCc1c[nH]c2ccc(-c3cccs3)cc12` [Compound 4, 3-(2-N,N-Dimethylaminoethyl)-5-(2-thienyl)-1H-indole], the inhibition at 0.1 µM on 5-HT1Dβ amounted to 72%; on 5-HT1Dα it was 97%. At 5-HT1D receptor (setting [1]), the EC50 was 806 nM.

With `CN(C)CCc1c[nH]c2ccc(-c3ccsc3)cc12` [Compound 3, 3-(2-N,N-Dimethylaminoethyl)-5-(3-thienyl)-1H-indole], the inhibition at 0.1 µM on 5-HT1Dβ was found to be 78%; at 5-HT1Dα, 98%. For the same compound, the EC50 at 5-HT1D receptor (setting [1]) came to 432 nM.

For `CN1CCC[C@@H]1Cc1c[nH]c2ccc(-c3ccsc3)cc12` [Compound 2, 3-(N-Methylpyrrolidin-2R-ylmethyl)-5-(3-thienyl)-1H-indole], the results for the inhibition at 0.1 µM on 5-HT1Dβ and on 5-HT1Dα were 83% and 99%, respectively. Besides, the EC50 at 5-HT1D receptor (setting [1]) was 140 nM.

Turning to `CNS(=O)(=O)Cc1ccc2[nH]cc(CCN(C)C)c2c1` [Sumatriptan], the “binding affinity for 5-HT1F” value in the experiment on 5-HT1F is reported as “high affinity”. Moreover, the “binding to other 5-HT receptors” value with other 5-HT receptors is “substantial exclusion of other 5-HT receptors”. For the same compound, the “binding affinity for 5-HT1D” value with 5-HT1D is “high affinity”. The compound also displayed an inhibition at 0.1 µM on 5-HT1Dα of 95%.
